This is an account of results in US10526326B2, “Crystalline form and acetic acid adducts of palbociclib” (RATIOPHARM GMBH, priority 2015, dated 2020).

In brackets after ≈: the same amount, converted by molar mass. Counter-ions that a name gives are not always drawn.

A short description of data set [1]: Dynamic vapor sorption measurement. Format: physicochemical. Particulars: for Diffractogram after DVS measurement versus initial: XRPD after humidity cycles. On the procedure:
Vapour sorption experiments were performed in the instrument SPSx-1 μ (Projekt Messtechnik, Ulm, Germany) at a temperature of 25° C., using the humidity cycles specified below: [table]

The conditions of data set [2]: cited from earlier work.
Data set [3] is described as follows: Solubility determination in aqueous solvents at 37° C. In kind it is physicochemical. The note with it: for solubility at 60 min / solubility at 15 min: 37 °C, thermodynamic from solid. On the procedure:
Approximately 200 mg (exactly weighed) test substance was weighed into a glass vial, followed by addition of 2 mL solvent (water, 0.01M HCl, 20 mM NaOAc/HOAc pH 4.5, 50 mM KH2PO4 pH 6.8). A stirring bar was added, the vial was fixed in a block heater at 37° C. and the suspension was stirred with approximately 250 rpm. After 15 min and 1 hour samples were withdrawn, filtered through a 0.2 μm disposable filter, diluted with solvent and quantified by UHPLC/UV.

Data set [4] in a line: Solubility determination in organic solvents at room temperature. Format: physicochemical. The note with it: chloroform, 23 °C, organic solvent or mixture, thermodynamic from solid, 23° C. (room temperature). As to the method: Solubilities in organic solvents (methanol, acetone, chloroform, DMSO) were determined similarly at room temperature with the difference that the suspensions were not stirred but treated with a vortex mixer for 20 s.

The mark [5] stands for this setting: 25° C., humidity cycles 0-95% RH.
Where [6] appears, read: 50 mM KH2PO4 buffer, pH 6.8, aqueous buffer, 50 mM KH2PO4 (pH 6.8).

Turning to `CC(=O)O.CC(=O)c1c(C)c2cnc(Nc3ccc(N4CCNCC4)cn3)nc2n(C2CCCC2)c1=O` [Palbociclib acetic acid adduct Form 1], the “Sample weight change after the DVS measurement” value in data set [1] (setting [5]) is −0.5%. Further, the “Diffractogram after DVS measurement versus initial” value in data set [1] is “practically identical with the initial one”.
For the compound `CC(=O)c1c(C)c2cnc(Nc3ccc(N4CCNCC4)cn3)nc2n(C2CCCC2)c1=O` [Palbociclib in form of the free base, 6-acetyl-8-cyclopentyl-5-methyl-2-{[5-(1-piperazinyl)-2-pyridinyl]amino}pyrido[2,3-d]pyrimidin-7(8H)-one], the “Solubility under acidic conditions (in words)” value in data set [2] (at or below pH 4) is listed as “good solubility”. In data set [2], the “Solubility in water (in words)” value is given as “practically insoluble”.
Consider `CC(=O)c1c(C)c2cnc(Nc3ccc(N4CCNCC4)cn3)nc2n(C2CCCC2)c1=O` [Palbociclib in present crystalline Form, 6-acetyl-8-cyclopentyl-5-methyl-2-{[5-(1-piperazinyl)-2-pyridinyl]amino}pyrido[2,3-d]pyrimidin-7(8H)-one], for which, in data set [3] (0.01M HCl, pH 2, simulated gastric fluid), the solubility (usually the dissolved amount per volume that the medium holds) at 60 min was 4300 µg/mL (≈ 9.61 mM). In data set [3] (20 mM NaOAc/HOAc buffer, pH 4.5, aqueous buffer, 20 mM NaOAc/HOAc (pH 4.5)), this compound yielded a solubility at 15 min of 16200 µg/mL (≈ 36.2 mM). Also, in data set [3] (setting [6]), the solubility at 15 min came to 100 µg/mL (≈ 0.223 mM) and the solubility at 60 min came to 100 µg/mL (≈ 0.223 mM). In data set [3] (aqueous solvents), the “Solubility in aqueous solvents compared with Form A (in words)” value was “comparable to that of Form A”. The solubility at 20 s in data set [4] came to 86100 µg/mL (≈ 192 mM). In addition, in data set [1] (setting [5]), the Maximum water uptake was 1.3% and the “Sample weight change after the DVS measurement” value is recorded as −0.2%. The “Diffractogram after DVS measurement versus initial” value in data set [1] is on record as “practically identical with the initial one”.
In the case of `CC(=O)c1c(C)c2cnc(Nc3ccc(N4CCNCC4)cn3)nc2n(C2CCCC2)c1=O` [dihydrochloride], in data set [2], the “Solubility in water (in words)” value is listed as “good water solubility”.
For `CC(=O)c1c(C)c2cnc(Nc3ccc(N4CCNCC4)cn3)nc2n(C2CCCC2)c1=O` [hydrochloride], in data set [2], the “Solubility in water (in words)” value was “good water solubility”.
